Measured values: ChEMBL document CHEMBL5137015, “Design, synthesis, and evaluation of a novel series of mono-indolylbenzoquinones derivatives for the potential treatment of breast cancer” (Eur J Med Chem, 2022)
Activity calls are given as the source filed them. No cut-off for these calls is given here.

Tests used:
4T1 [1] = assay: Antitumor activity against mouse 4T1 cells xenografted in Balb/c mouse assessed as tumor growth inhibition at 200 mg/kg administered topically over the tumor surface every two days for 14 days in the presence of cyanoacrylate relative to control; assay type: functional; conditions: 4T1, 336 h, route top, time 14 day, read-out: TGI
4T1 [2] = assay: Antitumor activity against mouse 4T1 cells xenografted in Balb/c mouse assessed as disordered nuclei at 200 mg/kg administered topically over the tumor surface every two days for 14 days in the presence of cyanoacrylate; assay type: functional, organism-based; conditions: route top, time 14.0 day
4T1 [3] = assay: Antitumor activity against mouse 4T1 cells implanted in Balb/c mouse assessed as tumor growth inhibition by measuring T/C ratio at 50 mg/kg administered intratumorally every four days for 14 days in the presence of liquid cyanoacrylate; assay type: functional; conditions: route it(Intratumoral), time 14 day
4T1 [4] = assay: Antitumor activity aginst mouse 4T1 cells implanted in Balb/c mouse assessed as nuclei disappearance at 50 mg/kg, ip administered every two days for 14 days; assay type: functional, organism-based; conditions: time 14.0 day
[5] = Acute toxicity in mouse assessed as death rate ratio at 476 mg/kg, ip measured over 14 days; assay type: organism-based; conditions: in vivo, 336 h, time 14 day
4T1 [6] = assay: Antitumor activity aginst mouse 4T1 cells implanted in Balb/c mouse assessed as nuclei shrinkage at 50 mg/kg, ip administered every two days for 14 days; assay type: functional, organism-based; conditions: time 14.0 day
MDA-MB-231 [7] = assay: Antiproliferative activity against human MDA-MB-231 cells assessed as inhibition of cell growth by MTT assay; assay type: functional, cell-based
MDA-MB-231 [8] = assay: Induction of cell cycle arrest in human MDA-MB-231 cells assessed as increase in S phase cells at 10 uM incubated for 24 hrs by PI staining based flow cytometric analysis (reference value: 16.61%); assay type: functional
4T1 [9] = assay: Antitumor activity against mouse 4T1 cells xenografted in Balb/c mouse assessed as tumor growth inhibition at 50 mg/kg administered intratumorally every four days for 14 days; assay type: functional; parameters: scale not given: the % may be the effect or the level left; conditions: route it(Intratumoral), time 14 day
MDA-MB-231 [10] = assay: Induction of apoptosis in human MDA-MB-231 cells assessed as decrease in Bcl-2 expression at 0.5 to 3 times of IC50 concentration by Western blot analysis; assay type: functional, cell-based
[11] = Toxicity in Balb/c mouse implanted with mouse 4T1 cells assessed as kidney lesions at 50 mg/kg administered intratumorally every four days for 14 days in the presence of liquid cyanoacrylate by H&E staining based histopathological analysis; assay type: organism-based; conditions: in vivo, other, 336 h, route it(Intratumoral), time 14 day
[12] = Drug metabolism in Balb/c mouse liver implanted with mouse 4T1 cells assessed as 2-methyl hydroxylation of parent compound causing metabolite formation by LC-MS analysis; assay type: ADME, tissue-based
MDA-MB-231 [13] = assay: Induction of apoptosis in human MDA-MB-231 cells assessed as increase in caspase 9 expression at 1 uM incubated for 24 hrs by Western blot analysis; assay type: functional, cell-based
[14] = Toxicity in Balb/c mouse implanted with mouse 4T1 cells assessed as lung lesions at 50 mg/kg, ip administered every two days for 14 days by H&E staining based histopathological analysis; assay type: organism-based; conditions: in vivo, 336 h, time 14 day
4T1 [15] = assay: Antitumor activity against mouse 4T1 cells implanted in Balb/c mouse assessed as TUNEL positive cells at 50 mg/kg administered intratumorally every four days for 14 days by TUNEL staining analysis (reference value: 6.55%); assay type: functional; conditions: route it(Intratumoral), time 14 day
[16] = Acute toxicity in mouse assessed as death rate ratio at 300 mg/kg, ip measured over 14 days; assay type: organism-based; conditions: in vivo, 336 h, time 14 day
MDA-MB-231 [17] = assay: Induction of apoptosis in human MDA-MB-231 cells assessed as increase in cytochrome C expression at 1 uM incubated for 24 hrs by Western blot analysis; assay type: functional, cell-based
[18] = Toxicity in Balb/c mouse implanted with mouse 4T1 cells assessed as liver lesions at 50 mg/kg, ip administered every two days for 14 days by H&E staining based histopathological analysis; assay type: organism-based; conditions: in vivo, 336 h, time 14 day
4T1 [19] = assay: Antitumor activity against mouse 4T1 cells implanted in Balb/c mouse assessed as TUNEL positive cells at 50 mg/kg, ip administered every two days for 14 days by TUNEL staining analysis (reference value: 6.55%); assay type: functional; conditions: time 14 day
4T1 [20] = assay: Antitumor activity aginst mouse 4T1 cells implanted in Balb/c mouse assessed as nuclei disappearance at 50 mg/kg administered intratumorally every four days for 14 days; assay type: functional, organism-based; conditions: route it(Intratumoral), time 14.0 day
MDA-MB-231 [21] = assay: Induction of apoptosis in human MDA-MB-231 cells assessed as increase in caspase 3 expression at 1 uM incubated for 24 hrs by Western blot analysis; assay type: functional, cell-based
MDA-MB-231 [22] = assay: Induction of apoptosis in human MDA-MB-231 cells assessed as increase in cytochrome C expression at 0.5 to 3 times of IC50 concentration by Western blot analysis; assay type: functional, cell-based
MDA-MB-231 [23] = assay: Induction of apoptosis in human MDA-MB-231 cells assessed as late apoptotic cells by measuring green fluorescence at 0.01 to 1 uM by Annexin V-FITC staining based fluorescence microscopic analysis; assay type: functional, cell-based; conditions: dose 0.01-1 µM
[24] = Toxicity in Balb/c mouse implanted with mouse 4T1 cells assessed as spleen lesions at 50 mg/kg, ip administered every two days for 14 days by H&E staining based histopathological analysis; assay type: organism-based; conditions: in vivo, 336 h, time 14 day
4T1 [25] = assay: Antitumor activity against mouse 4T1 cells implanted in Balb/c mouse assessed as TUNEL positive cells at 50 mg/kg administered intratumorally every four days for 14 days in the presence of liquid cyanoacrylate by TUNEL staining analysis; assay type: functional; conditions: route it(Intratumoral), time 14 day
[26] = Toxicity in Balb/c mouse implanted with mouse 4T1 cells assessed as lung lesions at 50 mg/kg administered intratumorally every four days for 14 days by H&E staining based histopathological analysis; assay type: organism-based; conditions: in vivo, other, 336 h, route it(Intratumoral), time 14 day
4T1 [27] = assay: Antitumor activity against mouse 4T1 cells xenografted in Balb/c mouse assessed as tumor growth inhibition at 50 mg/kg, ip administered every two days for 14 days; assay type: functional; parameters: scale not given: the % may be the effect or the level left; conditions: time 14 day
[28] = Toxicity in Balb/c mouse xenografted with mouse 4T1 cells assessed as lung lesions at 200 mg/kg administered topically over the tumor surface every two days for 14 days in the presence of cyanoacrylate by H&E staining based histopathological analysis; assay type: organism-based; conditions: in vivo, topical_or_ocular, 336 h, route top, time 14 day
[29] = Toxicity in Balb/c mouse xenografted with mouse 4T1 cells assessed as heart lesions at 200 mg/kg administered topically over the tumor surface every two days for 14 days in the presence of cyanoacrylate by H&E staining based histopathological analysis; assay type: organism-based; conditions: in vivo, topical_or_ocular, 336 h, route top, time 14 day
HeLa = assay: Antiproliferative activity against human HeLa cells assessed as inhibition of cell growth by MTT assay; assay type: functional, cell-based
[30] = Toxicity in Balb/c mouse implanted with mouse 4T1 cells assessed as heart lesions at 50 mg/kg, ip administered every two days for 14 days by H&E staining based histopathological analysis; assay type: organism-based; conditions: in vivo, 336 h, time 14 day
MDA-MB-231 [31] = assay: Induction of cell cycle arrest in human MDA-MB-231 cells assessed as decrease in G1 phase cells at 10 uM incubated for 24 hrs by PI staining based flow cytometric analysis (reference value: 74.44%); assay type: functional; parameters: scale not given: the % may be the effect or the level left
[32] = Toxicity in Balb/c mouse implanted with mouse 4T1 cells assessed as kidney lesions at 50 mg/kg administered intratumorally every four days for 14 days by H&E staining based histopathological analysis; assay type: organism-based; conditions: in vivo, other, 336 h, route it(Intratumoral), time 14 day
4T1 [33] = assay: Antitumor activity against mouse 4T1 cells xenografted in Balb/c mouse assessed as TUNEL positive cells at 200 mg/kg administered topically over the tumor surface every two days for 14 days in the presence of cyanoacrylate by TUNEL staining analysis (reference value: 21.78%); assay type: functional; conditions: route top, time 14 day

Cc1[nH]c2ccccc2c1C1=C(Cl)C(=O)C(Cl)=C(N2CCOCC2)C1=O
inhibition in vivo at 200 mg/kg (4T1 [1]): 38%
Activity (4T1 [2]): Active
T/C (4T1 [3]): 42%
Activity (4T1 [4]): Active
Ratio [5]: 0.66
Activity (4T1 [6]): Active
IC50 (MDA-MB-231 [7]): 70 nM
Activity (MDA-MB-231 [8]): 28.47%
Activity (4T1 [9]): 24.6%
Activity (MDA-MB-231 [10]): Active
Activity [11]: Non-Toxic
Drug metabolism [12]: Metabolite_Detected
Activity (MDA-MB-231 [13]): Active
Activity [14]: Non-Toxic
Activity (4T1 [15]): 91.48%
Ratio [16]: 0.33
Activity (MDA-MB-231 [17]): Active
Activity [18]: Non-Toxic
Activity (4T1 [19]): 19.64%
Activity (4T1 [20]): Active
Activity (MDA-MB-231 [21]): Active
Activity (MDA-MB-231 [22]): Active
Activity (MDA-MB-231 [23]): Active
Activity [24]: Non-Toxic
Activity (4T1 [25]): 49.52%
Activity [26]: Non-Toxic
Activity (4T1 [27]): 36%
Activity [28]: Non-Toxic
Activity [29]: Non-Toxic
IC50 (HeLa): 320 nM
Activity [30]: Non-Toxic
Activity (MDA-MB-231 [31]): 16.84%
Activity [32]: Non-Toxic
Activity (4T1 [33]): 64.71%
